Legend:
Assay type in all cases: in vivo
[1] = test system: Spodoptera littoralis; assay: Spodoptera littoralis (Egyptian cotton leafworm) leaf disc test; conditions: foliar, 72 h, 200 ppm sprayed on cotton leaf discs, L1 larvae, mortality, feeding behavior, growth regulation 3 DAT
Description: Spodoptera littoralis (Egyptian cotton leafworm): Cotton leaf discs were placed on agar in a 24-well microtiter plate and sprayed with test solutions at an application rate of 200 ppm. After drying, the leaf discs were infested with 5 L1 larvae. The samples were checked for mortality, feeding behavior, and growth regulation 3 days after treatment (DAT).

[2] = test system: Heliothis virescens; assay: Heliothis virescens (Tobacco budworm) egg/artificial diet test; conditions: 96 h, 200 ppm (concentration in well 18 ppm), eggs on artificial diet, 4 days, egg mortality, larval mortality, growth regulation
Protocol: Heliothis virescens (Tobacco budworm): Eggs (0-24 h old) were placed in 24-well microtiter plate on artificial diet and treated with test solutions at an application rate of 200 ppm (concentration in well 18 ppm) by pipetting. After an incubation period of 4 days, samples were checked for egg mortality, larval mortality, and growth regulation.

[3] = test system: Plutella xylostella; assay: Plutella xylostella (Diamond back moth) artificial diet test; conditions: 144 h, 200 ppm (concentration in well 18 ppm), L2 larvae, 6 days, larval mortality and growth regulation
Protocol: Plutella xylostella (Diamond back moth): 24-well microtiter plate (MTP) with artificial diet was treated with test solutions at an application rate of 200 ppm (concentration in well 18 ppm) by pipetting. After drying, the MTP's were infested with L2 larvae (7-12 per well). After an incubation period of 6 days, samples were checked for larval mortality and growth regulation.

[4] = test system: Diabrotica balteata; assay: Diabrotica balteata (Corn root worm) artificial diet test; conditions: 120 h, 200 ppm (concentration in well 18 ppm), L2 larvae, 5 days, larval mortality and growth regulation
Protocol: Diabrotica balteata (Corn root worm): A 24-well microtiter plate (MTP) with artificial diet was treated with test solutions at an application rate of 200 ppm (concentration in well 18 ppm) by pipetting. After drying, the MTP's were infested with L2 larvae (6-10 per well). After an incubation period of 5 days, samples were checked for larval mortality and growth regulation.

[5] = test system: Thrips tabaci; assay: Thrips tabaci (Onion thrips) leaf disc test; conditions: foliar, 168 h, 200 ppm sprayed on sunflower leaf discs, population of mixed ages, 7 days, mortality
Protocol: Thrips tabaci (Onion thrips): Sunflower leaf discs were placed on agar in a 24-well microtiter plate and sprayed with test solutions at an application rate of 200 ppm. […] After an incubation period of 7 days, samples were checked for mortality.

[6] = test system: Tetranychus urticae; assay: Tetranychus urticae (Two-spotted spider mite) leaf disc test; conditions: foliar, 192 h, 200 ppm sprayed on bean leaf discs, mite populations of mixed ages, 8 days, egg, larval and adult mortality
Description: Tetranychus urticae (Two-spotted spider mite): Bean leaf discs on agar in 24-well microtiter plates were sprayed with test solutions at an application rate of 200 ppm. After drying, the leaf discs are infested with mite populations of mixed ages. 8 days later, discs are checked for egg mortality, larval mortality, and adult mortality.

[7] = test system: Myzus persicae; assay: Myzus persicae (Green peach aphid) leaf disc test; conditions: foliar, 144 h, 200 ppm sprayed on sunflower leaf discs, aphid population of mixed ages, 6 DAT, mortality
Protocol: Myzus persicae (Green peach aphid): Sunflower leaf discs were placed on agar in a 24-well microtiter plate and sprayed with test solutions at an application rate of 200 ppm. After drying, the leaf discs were infested with an aphid population of mixed ages. After an incubation period of 6 DAT, samples were checked for mortality.

Measured: pest or weed control at 200 ppm

CCN(C(=O)c1ccncc1)c1cccc(C(=O)Nc2c(Cl)cc(C(F)(C(F)(F)F)C(F)(F)F)cc2Br)c1F [Compound 1, N′-[3-[[2-bromo-6-chloro-4-[1,1,1,2,3,3,3-heptafluoro-prop-2-yl]phenyl]carbamoyl]-2-fluoro-phenyl]-N-ethyl-pyridine-4-carboxamide]
≥ 80%: all assays above

CCN(C(=O)c1cc[n+]([O-])cc1)c1cccc(C(=O)Nc2c(Cl)cc(C(F)(C(F)(F)F)C(F)(F)F)cc2Br)c1F [Compound 2, N′-[3-[[2-bromo-6-chloro-4-[1,1,1,2,3,3,3-heptafluoro-prop-2-yl]phenyl]carbamoyl]-2-fluoro-phenyl]-N-ethyl-1-oxido-pyridin-1-ium-4-carboxamide]
≥ 80%: all assays above

CN(C(=O)c1ccncc1)c1cccc(C(=O)Nc2c(Cl)cc(C(F)(C(F)(F)F)C(F)(F)F)cc2Br)c1F [Compound 3]
not listed: [2]
≥ 80%: all other assays above

CCc1cc(C(F)(C(F)(F)F)C(F)(F)F)cc(CC)c1NC(=O)c1cccc(N(CC)C(=O)c2ccncc2)c1F [Compound 4]
not listed: [2]
≥ 80%: all other assays above

CCc1cc(C(F)(C(F)(F)F)C(F)(F)F)cc(CC)c1NC(=O)c1cccc(N(CC)C(=O)c2cc[n+]([O-])cc2)c1F [Compound 5]
not listed: [1] | [2]
≥ 80%: all other assays above

CCN(C(=O)c1ccncc1)c1cccc(C(=O)Nc2c(Br)cc(C(F)(C(F)(F)F)C(F)(F)F)cc2Br)c1F [Compound 6]
≥ 80%: all assays above

CCN(C(=O)c1ccncc1)c1cccc(C(=O)Nc2c(Br)cc(C(F)(C(F)(F)F)C(F)(F)F)cc2OC(F)F)c1F [Compound 7]
≥ 80%: all assays above

CN(C(=O)c1ccncc1)c1cccc(C(=O)Nc2c(Br)cc(C(F)(C(F)(F)F)C(F)(F)F)cc2Br)c1F [Compound 8]
≥ 80%: all assays above

CN(C(=O)c1cc[n+]([O-])cc1)c1cccc(C(=O)Nc2c(Br)cc(C(F)(C(F)(F)F)C(F)(F)F)cc2Br)c1F [Compound 9]
≥ 80%: all assays above

CN(C(=O)c1ccncc1)c1cccc(C(=O)Nc2c(Cl)cc(C(F)(C(F)(F)F)C(F)(F)F)cc2Cl)c1F [Compound 10]
≥ 80%: all assays above

CCN(C(=O)c1ccncc1)c1cccc(C(=O)Nc2c(Cl)cc(C(F)(C(F)(F)F)C(F)(F)F)cc2Cl)c1F [Compound 11]
≥ 80%: all assays above

Cc1cc(C(F)(C(F)(F)F)C(F)(F)F)cc(Cl)c1NC(=O)c1cccc(N(C)C(=O)c2ccncc2)c1F [Compound 12]
≥ 80%: all assays above

CCc1cc(C(F)(C(F)(F)F)C(F)(F)F)cc(Cl)c1NC(=O)c1cccc(N(CC)C(=O)c2ccncc2)c1F [Compound 13]
≥ 80%: all assays above

CCN(C(=O)c1ccncc1)c1cccc(C(=O)Nc2c(C)cc(C(F)(C(F)(F)F)C(F)(F)F)cc2Cl)c1F [Compound 14]
≥ 80%: all assays above

CCN(C(=O)c1ccncc1)c1cccc(C(=O)Nc2c(Cl)cc(C(F)(C(F)(F)F)C(F)(F)F)cc2OC(F)F)c1F [Compound 18]
not listed: [2]
≥ 80%: all other assays above

CCN(C(=O)c1ccncc1)c1cccc(C(=O)Nc2c(C)cc(C(F)(C(F)(F)F)C(F)(F)F)cc2OC(F)F)c1F [Compound 19]
not listed: [2]
≥ 80%: all other assays above
